According to patent publication US9771560B2, “High-throughput image-based chemical screening in zebrafish blastomere cell culture” (CHILDREN'S MEDICAL CENTER CORPORATION, priority 2012, dated 2017):
Where “and” joins values, the source holds several entries; their conditions need not be identical. Identical values can stand only once.

Columns and labels:
[1] = tested on: satellite cells from mdx mice; experiment: In vitro expansion of mdx satellite cells (cell count); type: cell-based, mouse; settings: 5 days in culture
Experimental: (§1) SMP isolation was performed as previously described (Cerletti et al., 2008; Sherwood et al., 2004). Briefly, MFA cells were prepared from intact skeletal muscles (EDL, gastrocnemius, quadriceps, soleus, TA, triceps brachii, abdominal) by digesting the muscles with collagenase type II and then dispase enzymes. MFA cells were stained for isolation of CD45^−Sca-1^−Mac-1^−CXCR4^+ b1-integrin^+ cell population by FACS. For in vitro expansion experiments, SMPs were seeded on collagen/laminin-coated plates in F10 (Gibco) containing 20% horse serum (Atlanta Biologics), 1% penicillin-streptomycin (Invitrogen) and 1% glutamax (Invitrogen). […] Cells were counted or used for transplantation after 5 days in culture. For Myogenic colony formation assay cells were fixed and counted after 6 days in culture. […]
(§2) Cultured SMPs were fixed in 4% paraformaldehyde (PFA) and stained with 10 μg/ml Hoechst (Invitrogen). […] The images were analyzed and numbers of cells were counted by the built-in software. […] The images were analyzed and percentage of nuclei in myotubes was calculated using a modified ImageJ macro developed in-house. […]
(§3) We hypothesized that the chemical hits enhancing skeletal muscle development in zebrafish blastomeres may likewise promote muscle precursor cell formation and/or expansion in other species. […] Cell number in the resulting colonies was determined after 5 days in culture.

cultured satellite cells = experiment: Flow cytometry of CXCR4 and β-1 Integrin on cultured satellite cells; type: cell-based, mouse; settings: after 5 days in culture, FACS
Experimental: FIG. 5C, GFP^+ satellite cells were harvested from β-actin GFP mice and were transplanted into TA muscle of recipient mdx mice, injured 1 day previously by injection of cardiotoxin, either right after isolation or after five days in culture with DMSO or forskolin treatment. […] Scale bars represent 200 μm.
Flow cytometry analysis was performed using a BD LSR II, provided through the Harvard Stem Cell Institute Flow Cytometry Core Facility. Flow cytometry data were collected using DIVA (Becton Dickinson (BD), Franklin Lakes, N.J.) software and analyzed offline using Flowjo software (Tree Star, Inc., Macintosh version 8.1.1, Ashland, Oreg.). Antibodies used for flow cytometry included: APC/Cy7 anti-mouse Ter119, clone Ter119 (1:200, Biolegend 116223), APC/Cy7 anti-mouse CD45, clone 30-F11 (1:200, Biolegend 103116), APC/Cy7 anti-mouse CD11b, clone M1/70 (1:200, Biolegend 101226), APC Anti-mouse Ly-6A/E (Sca-1), clone D7 (1:200, Biolegend 108112), Biotin anti-mouse CD184 (CXCR4, Fusin) (1:100, BD Biosciences 551968), Streptavidin PE-Cy7 (1:100, eBioscience 25-4317-82), PE anti-mouse/rat CD29 Antibody (1:100, Biolegend 102208). Live cells were identified by positive staining with calcein blue (1:1000) (Invitrogen, Carlsbad, Calif.) and negative staining for propidium iodide (PI, 1 μg/mL). […]

[2] = tested on: cAMP levels in mouse satellite cell cultures; experiment: cAMP-Glo assay in cultured satellite cells; type: cell-based
Experimental: cAMP assay was performed using the cAMP-Glo™ Assay kit (Promega) according to the manufacturer's protocol.
To test forskolin's effect on satellite cell survival and proliferation, single cells were plated at one cell per well in 96-well plates and treated with forskolin or DMSO. After six days in vitro culture, we quantified the number of wells containing any number of myogenic cells (a measure of cell survival) and the number of cells in those wells (a measure of cell proliferation) (FIG. 3D).

[3] = tested on: satellite cells from C57BL/6J mice; experiment: In vitro expansion of mouse satellite cells (cell count); type: cell-based; settings: 5 days in culture
Experimental: as §1, §2, §3

C=C[C@@]1(C)CC(=O)[C@]2(O)[C@@]3(C)[C@@H](O)CCC(C)(C)[C@@H]3[C@H](O)[C@H](OC(C)=O)[C@@]2(C)O1 [forskolin]
fold change of number of satellite cells compared to DMSO [1]: ~3.6 folds
frequency of cells co-expressing CXCR4 and β-1 Integrin (cultured satellite cells): 78.9%+/−1.52% and ~80%
concentration of cAMP, fold increase compared to DMSO treated cells ([2]; 25 μM forskolin): ~4.5 fold
concentration of cAMP, fold increase compared to DMSO treated cells ([2]; 50 μM forskolin): ~5.2 fold
concentration of cAMP, fold increase compared to DMSO treated cells ([2]; 100 μM forskolin): ~5.7 fold
total number of cells, fold change compared to DMSO treated cells ([3]; absence of bFGF): ~2 folds
total number of cells, fold change compared to DMSO treated cells ([3]; presence of bFGF): ~2.3 folds
